Patent US20050020576A1, “Kappa agonist compounds and pharmaceutical formulations thereof” (priority 1996, published 2005)
Values joined by “and” are separate entries in the source; they are usually repeats but may differ in a detail not shown here. Equal entries are not always repeated. Structures can show the parent of a compound that is named as a salt.

Columns and labels:
[1] = biological target: T1, cloned human kappa receptor (Homo sapiens, UniProt P41145); assay: biochemical; format: binding; conditions: for inhibition at 1 µM: read-out: 3H-Diprenorphin, % @ 1 uM
T1 sequence (P41145 whole entry): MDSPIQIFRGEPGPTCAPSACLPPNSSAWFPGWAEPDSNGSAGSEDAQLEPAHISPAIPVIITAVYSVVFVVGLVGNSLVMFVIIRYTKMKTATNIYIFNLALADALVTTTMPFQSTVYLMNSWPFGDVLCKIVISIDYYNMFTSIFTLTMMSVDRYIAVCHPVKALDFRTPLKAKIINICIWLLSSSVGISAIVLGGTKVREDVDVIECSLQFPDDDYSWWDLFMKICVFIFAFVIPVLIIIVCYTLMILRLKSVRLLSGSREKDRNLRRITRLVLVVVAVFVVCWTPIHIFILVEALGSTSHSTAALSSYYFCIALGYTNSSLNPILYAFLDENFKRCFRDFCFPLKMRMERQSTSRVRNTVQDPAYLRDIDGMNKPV

[2] = biological target: T1, cloned human kappa receptor; assay: [3H]U69593 (agonist) binding to the cloned human kappa receptor
[3] = system: formalin-induced flinching; assay: animal or person; format: in vivo, male Sprague-Dawley rats; conditions: rat, in vivo

Row | Structure (SMILES) | Ki ([1]; Ki, nM 3H-Diprenorphin) | Ki ([2]; Ki, nM 3H-U-69,593) | Late Phase Formalin, % @ 300; i.paw [3] | further results
1 | CS(=O)(=O)N1CCN(C(=O)Cc2ccc(Cl)c(Cl)c2)[C@H](CN2CCCC2)C1.Cl [(R-3a), (R)-4-Methanesulfonyl-1-[(3,4-dichlorophenyl)acetyl]-2-[(1-pyrrolidinyl)methyl]-piperazine hydrochloride] | 0.2 nM and 1.3 nM | 0.19 nM and 0.5 nM | – | melting point: 130 to 132 °C; Late Phase Formalin A50 (mg); i.paw [3]: 14 (5.6-29) mg
2 | Cl.O=C(Cc1ccc(Cl)c(Cl)c1)N1CCN(Cc2ccccc2)C[C@H]1CN1CCCC1 [(R-1), (R)-4-(Phenylmethyl)-1-[(3,4-dichlorophenyl)acetyl]-2-[(1-pyrrolidinyl)methyl]piperazine hydrochloride] | 57 nM and 38 nM | 9.3 nM | 53% @ 300 | melting point: 168 to 170 °C
3 | Cl.O=CN1CCN(C(=O)Cc2ccc(Cl)c(Cl)c2)[C@H](CN2CCCC2)C1 [(R-3j), (R)-4-[(3,4-Dichlorophenyl)acetyl]-3-[(1-pyrrolidinyl)methyl]-1-piperazinecarboxaldehyde hydrochloride] | – | 0.4 nM | 65% @ 300 | melting point: 126 °C (dec.); inhibition at 1 µM [1]: 96%
4 | CS(=O)(=O)N1CCN(C(=O)Cc2ccc(Cl)c(Cl)c2)C(CN2CCCC2)C1 (racemic) [(R,S-8a), (R,S)-4-Methanesulfonyl-1-[(3,4-dichlorophenyl)acetyl]-2-[(1-pyrrolidinyl)methyl]-piperazine hydrochloride] | 5.4 nM and 4 nM | 0.37 nM and 0.65 nM | 96% @ 300 | –
5 | COC(=O)N1CCN(C(=O)Cc2c[nH]c3ccccc23)C(CN2CCCC2)C1 (racemic) [(R,S-9c), (R,S)-Methyl 4-[(3-indolyl)acetyl]-3-[(1-pyrrolidinyl)-methyl]-1-piperazine-carboxylate hydrochloride] | 3 nM | 0.27 nM and 0.4 nM | 95% @ 300 | –
6 | CC(=O)N1CCN(C(=O)Cc2ccc(Cl)c(Cl)c2)[C@H](CN2CCCC2)C1.Cl [(R-3f), (R)-4-Acetyl-1-[(3,4-dichlorophenyl)acetyl]-2-[(1-pyrrolidinyl)methyl]-piperazine hydrochloride] | 4.2 nM and 1.4 nM | 0.11 nM and 0.14 nM | 95% @ 300 | melting point: 153 to 155 °C
7 | CCOC(=O)CN(CC(=O)OCC)c1ccc2c(c1)[C@H](N(C)C(=O)Cc1ccc(Cl)c(Cl)c1)[C@@H](N1CCCC1)CC2 (racemic) [II-10] | – | – | – | Ki ([1]; Ki (nM) k [3H] Diprenorphin): 4.6 nM; Ki ([2]; Ki (nM) k (mg) [3H]U69,593): 0.68 nM; Late Phase Formalin, % A @ 300 [3]: 37% A @ 300
8 | COC(=O)N1CCN(C(=O)Cc2ccccc2OC)C(CN2CCCC2)C1 (racemic) [(R,S-9e), hydrochloride] | 7.3 nM | 0.46 nM and 1.3 nM | 98% @ 300 | –
9 | Cl.NC(=O)N1CCN(C(=O)Cc2ccc(Cl)c(Cl)c2)[C@H](CN2CCCC2)C1 [(R-3i), (R)-4-[(3,4-Dichlorophenyl)acetyl]-3-[(1-pyrrolidinyl)methyl]-1-piperazinecarboxamide hydrochloride] | 56 nM and 29 nM | 2.9 nM | 68% @ 300 | –
10 | O=C(Cc1ccc(C(F)(F)F)cc1)N1CCN(Cc2ccccc2)CC1CN1CCCC1 (centres unmarked) [(R.S-11)] | 2.2 nM and 2.4 nM | 0.39 nM and 0.57 nM | 92% @ 300 | –
11 | Cl.Cl.NC(CC(=O)O)C(=O)N1CCN(C(=O)Cc2ccc(Cl)c(Cl)c2)[C@H](CN2CCCC2)C1 (stereo partly drawn) [(R-3e), (R)-4-Aspartic acid-1-[(3,4-dichlorophenyl)acetyl]-2-[(1-pyrrolidinyl)methyl]-piperazine dihydrochloride] | – | – | 22% A @ 300 | 3H-Diprenorphin, % @ 1 uM [1]: 39% @ 1 uM; Ki ([2]; dihydrochloride, read-out: Ki, nM 3H-U-69,593): 37 nM and 28 nM
12 | Cl.Cl.O=C(O)CN1CCN(C(=O)Cc2ccc(Cl)c(Cl)c2)[C@H](CN2CCCC2)C1 [(R-3c), (R)-4-[(3,4-dichlorophenyl)acetyl]-3-[(1-pyrrolidinyl)methyl]-1-piperazineacetic acid dihydrochloride] | – | 23 nM and 21 nM | 26% @ 300 | melting point: 190 °C (dec.); inhibition at 1 µM [1]: 62%
13 | COC(=O)N1CCN(C(=O)Cc2ccc(C(F)(F)F)cc2)C(CN2CCCC2)C1 (racemic) [(R,S-9b), (R,S)-Methyl 4-[(4-trifluoromethylphenyl)acetyl]-3-[(1-pyrrolidinyl)-methyl]-1-piperazinecarboxylate hydrochloride] | 0.49 nM | 0.076 nM and 0.13 nM | 98% @ 300 | –
14 | CC(C)(C)CC(=O)N1CCN(C(=O)Cc2ccc(Cl)c(Cl)c2)[C@H](CN2CCCC2)C1 [(R-3b), (R)-4-t-Butyl-acetyl-1-[(3,4-dichlorophenyl)acetyl]-2-[(1-pyrrolidinyl)methyl]-piperazine] | – | – | – | 3H-Diprenorphin, % @ 1 uM [1]: 30% @ 1 uM; 3H-U-69,593, % @ 1 uM [2]: 75% @ 1 uM; Late Phase Formalin column, % I @ 1 μM [3]: 75% I @ 1 μM
15 | COC(=O)N1CCN(C(=O)Cc2ccc(Cl)c(Cl)c2)C(CN2CCCC2)C1 (centres unmarked) [GR 89696, reference compound] | 0.095 nM and 0.1 nM | 1.6 nM and 1.5 nM | – | Late Phase Formalin A50 (mg); i.paw [3]: 0.35(0.20-0.62) mg
16 | COC(=O)N1CCN(C(=O)Cc2ccccc2[N+](=O)[O-])C(CN2CCCC2)C1 (racemic) [(R,S-9d), (R,S)-Methyl 4-[(2-nitrophenyl)acetyl]-3-[(1-Pyrrolidinyl)-methyl]-1-piperazine-carboxylate hydrochloride] | 37 nM | 0.74 nM and 0.73 nM | 93% @ 300 | –
17 | COC(=O)N1CCN(C(=O)Cc2ccccc2N)C(CN2CCCC2)C1 (racemic) [(R,S-9f), (R,S)-Methyl 4-[(2-aminophenyl)acetyl]-3-[(1-pyrrolidinyl)-methyl]-1-piperazine-carboxylate dihydrochloride] | 4.6 nM and 3.2 nM | 0.67 nM and 0.41 nM | 97% @ 300 | –
